Laboratory results from US20260224582A1, “Heterobicyclic amides as inhibitors of CD38” (Cerevance, Inc., priority 2022, published 2026).

Tests used:
Recombinant mouse CD38 = target: T1, Recombinant mouse CD38 (Mus musculus, UniProt P56528); assay: Mouse CD38 hydrolase assay (fluorescence-based, ε-NAD substrate); assay type: biochemical; conditions: recombinant mouse CD38 0.4 nM, 12 μM ε-NAD, 30 min preincubation at 25° C.
T1 sequence (P56528 1-304): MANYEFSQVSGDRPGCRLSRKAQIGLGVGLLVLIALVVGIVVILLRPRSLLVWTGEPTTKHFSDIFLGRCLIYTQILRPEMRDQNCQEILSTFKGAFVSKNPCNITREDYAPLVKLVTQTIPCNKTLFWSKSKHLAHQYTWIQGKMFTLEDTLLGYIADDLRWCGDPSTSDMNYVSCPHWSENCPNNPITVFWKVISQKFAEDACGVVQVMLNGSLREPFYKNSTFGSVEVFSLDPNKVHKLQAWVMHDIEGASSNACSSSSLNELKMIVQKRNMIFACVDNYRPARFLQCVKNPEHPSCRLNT
Procedure, shortened: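 Recombinant mouse CD38 (0.4 nM) preincubated with compound 30 min at 25° C in PBS without Ca/Mg, 0.005% BSA, pH 7.4, then 12 μM ε-NAD added. Fluorescence (ex 300/em 410 nm) read at 0 and 6 min, difference used. IC50 from 10-point half-log curve, four-parameter fit, normalised to tool-inhibitor low control.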

[1] = Tissue binding assay (equilibrium dialysis), brain homogenate; assay type: in vitro ADME; conditions: mouse brain homogenate, dialysis 4 hours at 37° C., pH 7.4
Experimental: Buffer preparation. A basic solution was prepared by dissolving 14.2 g/L Na2HPO4 and 8.77 g/L NaCl in deionized H2O. An acidic solution was prepared by dissolving 15.6 g/L NaH2PO4·2H2O and 8.77 g/L NaCl in deionized H2O. Using the acidic solution, the basic solution was then titrated to pH 7.4±0.1 and stored at 4° C. for up to 1 month. The stop solution was 100% CH3CN containing 200 ng/ml tolbutamide, 200 ng/ml labetalol and 50 ng/ml metformin.
Test method. Dialysis membrane strips were soaked in ultra-pure water at room temperature for ~1 hour. Each membrane strip containing 2 membranes was separated and soaked in 20:80 EtOH/H2O (v/v) for ~20 min, after which they were ready for use or were stored in the solution at 2-8° C. for up to 1 month. Prior to the experiment, the membrane was rinsed and soaked for 20 min in ultra-pure water. On the day of experiment, brain homogenate was thawed in a water bath at room temperature and incubated at 37° C. for 10 min before use. Test and control compounds were dissolved in DMSO to achieve 10 mM stock solutions. DMSO working solutions were prepared at 400 μM by diluting 10 μL of stock solution. To prepare the time zero (t=0) samples to be used for recovery determination, 50 μL aliquots of loading matrix were transferred in triplicate to the sample collection plate. The samples were immediately matched with opposite blank buffer to obtain a final volume of 100 μL of 1:1 matrix/dialysis buffer (v/v) in each well. 500 μL of stop solution were added to these t=0 samples. They were then stored at 2-8° C. pending further processes along with other post-dialysis samples. To load the dialysis device, an aliquot of 150 μL of the loading matrix was transferred to the donor side of each dialysis well in triplicate, and 150 μL of the dialysis buffer was loaded to the receiver side of the well. The dialysis plate was placed in a humidified incubator at 37° C. with 5% CO2 on a shaking platform that rotated slowly (about 100 rpm) for 4 hours. At the end of the dialysis, aliquots of 50 μL of samples were taken from both the buffer side and the matrix side of the dialysis device. These samples were transferred into new 96-well plates. Each sample was mixed with an equal volume of opposite blank matrix (buffer or matrix) to reach a final volume of 100 μL of 1:1 matrix/dialysis buffer (v/v) in each well. All samples were further processed by adding 500 μL of stop solution containing internal standards. The mixture was vortexed and centrifuged at 4000 rpm for about 20 min. An aliquot of 100 μL of supernatant of all the samples was then removed for LC-MS/MS analysis. The single blank samples were prepared by transferring 50 μL of blank matrix to a 96-well plate and adding 50 μL of blank PBS buffer to each well. Then the matrix-matched samples were further processed by adding 500 μL of stop solution containing internal standards, following the same sample processing method as the dialysis samples.
Data analysis. The % undiluted unbound, % undiluted bound and % recovery were calculated using the following equations: […]
where F is the analyte concentration or peak area ratio of analyte/internal standard on the buffer (receiver) side of the membrane; T is the analyte concentration or peak area ratio of analyte/internal standard on the matrix (donor) side of the membrane; To is the analyte concentration or the peak area ratio of analyte/internal standard in the loading matrix sample at time zero; and D is the dilution factor determined as 4 in this assay.

Compound	IC50 (Recombinant mouse CD38) [µM]	fraction unbound at 4 h [1]
O=C(N[C@H]1CC[C@H](NCC(F)(F)F)CC1)c1cn2nccc2c(-n2ccnc2)n1 [Example 21, 4-(1H-imidazol-1-yl)-N-((1r,4r)-4-((2,2,2-trifluoroethyl)amino)cyclohexyl)pyrazolo[1,5-a]pyrazine-6-carboxamide]	≤ 0.04	0.34
O=C(N[C@H]1CC[C@H](NCC(F)(F)F)CC1)c1nc(-n2ccnc2)nn2cccc12 [Example 29, 2-(1H-imidazol-1-yl)-N-((1r,4r)-4-((2,2,2-trifluoroethyl)amino)cyclohexyl)pyrrolo[2,1-f][1,2,4]triazine-4-carboxamide]	≤ 0.04	0.064
O=C(N[C@H]1CC[C@H](N2CCC(F)(F)C2)CC1)c1cn2ccnc2c(-n2ccnc2)n1 [Example 41, N-((1r,4r)-4-(3,3-difluoropyrrolidin-1-yl)cyclohexyl)-8-(1H-imidazol-1-yl) imidazo[1,2-a]pyrazine-6-carboxamide]	≤ 0.04	0.15
O=C(N[C@H]1CC[C@H](N2CC(F)(F)C2)CC1)c1cn2ncnc2c(-n2ccnc2)n1 [Example 45, N-((1r,4r)-4-(3,3-difluoroazetidin-1-yl)cyclohexyl)-8-(1H-imidazol-1-yl)-[1,2,4]triazolo[1,5-a]pyrazine-6-carboxamide]	≤ 0.04	0.15
O=C(N[C@H]1CC[C@H](N2CCC(F)(F)C2)CC1)c1cn2ncnc2c(-n2ccnc2)n1 [Example 48, N-((1r,4r)-4-(3,3-difluoropyrrolidin-1-yl)cyclohexyl)-8-(1H-imidazol-1-yl)-[1,2,4]triazolo[1,5-a]pyrazine-6-carboxamide]	≤ 0.04	0.15

Next, values leading:

IC50 (Recombinant mouse CD38) [µM]	fraction unbound at 4 h [1]	Compound
≤ 0.04	0.41	O=C(N[C@H]1CC[C@H](NCC(F)(F)F)CC1)c1nc(-n2ccnc2)nc2ncccc12 [Example 4, 2-(1H-imidazol-1-yl)-N-((1r,4r)-4-((2,2,2-trifluoroethyl)amino)cyclohexyl)pyrido[2,3-d]pyrimidine-4-carboxamide]
≤ 0.04	0.068	O=C(N[C@H]1CC[C@H](N2CCC(F)(F)C2)CC1)c1nc(-n2ccnc2)nn2cccc12 [Example 12, N-((1r,4r)-4-(3,3-difluoropyrrolidin-1-yl)cyclohexyl)-2-(1H-imidazol-1-yl)pyrrolo[2,1-f][1,2,4]triazine-4-carboxamide]
≤ 0.04	0.056	O=C(N[C@H]1CC[C@H](N2CC[C@H](F)C2)CC1)c1nc(-n2ccnc2)nn2cccc12 [Example 13, N-((1S,4r)-4-((S)-3-fluoropyrrolidin-1-yl)cyclohexyl)-2-(1H-imidazol-1-yl)pyrrolo[2,1-f][1,2,4]triazine-4-carboxamide]
≤ 0.04	0.056	O=C(N[C@H]1CC[C@H](N2CC[C@@H](F)C2)CC1)c1nc(-n2ccnc2)nn2cccc12 [Example 14, N-((1R,4r)-4-((R)-3-fluoropyrrolidin-1-yl)cyclohexyl)-2-(1H-imidazol-1-yl)pyrrolo[2,1-f][1,2,4]triazine-4-carboxamide]
≤ 0.04	0.25	O=C(N[C@H]1CC[C@H](NCC(F)(F)F)CC1)c1cn2ccnc2c(-n2ccnc2)n1 [Example 19, 8-(1H-imidazol-1-yl)-N-((1r,4r)-4-((2,2,2-trifluoroethyl)amino)cyclohexyl) imidazo[1,2-a]pyrazine-6-carboxamide]
≤ 0.04	0.34	O=C(N[C@H]1CC[C@H](NCC(F)(F)F)CC1)c1cn2ncnc2c(-n2ccnc2)n1 [Example 20, 8-(1H-imidazol-1-yl)-N-((1r,4r)-4-((2,2,2-trifluoroethyl)amino)cyclohexyl)-[1,2,4]triazolo[1,5-a]pyrazine-6-carboxamide]
